Experimental findings from PMC10648927, “Examining the activity of cefepime-taniborbactam against Burkholderia cepacia complex and Burkholderia gladioli isolated from cystic fibrosis patients in the United States” (Antimicrobial Agents and Chemotherapy, 2023) are described below.

Common to all, as to set-up: agar dilution MIC, growth inhibition of clinical Burkholderia isolates
One test has as its system T1, B. cepacia AU13163.
T1 construct: AU13163
Kind of test: microbe, parasite or virus in culture. As to conditions: Burkholderia cepacia, AU13163. An outline of the steps:
(§1)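 MICs by agar dilution against Bcc and B. gladioli clinical isolates, interpreted with CLSI breakpoints where available; K. pneumoniae ATCC 700603 (SHV-18) and ATCC BAA-1705 (KPC) served as quality controls.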

Another test has as its system T2, B. dolosa AU12872.
T2 construct: AU12872
Kind of test: microbe, parasite or virus in culture. The note with it: Burkholderia dolosa, AU12872. In short, it runs like this:
as §1

Test [1] relates to T3, B. pseudomultivorans AU19682.
T3 construct: AU19682
The test can be described thus: organism not typed. In short, it runs like this:
as §1

Another test relates to T4, B. multivorans AU23365.
T4 construct: AU23365
Kind of test: microbe, parasite or virus in culture. The note with it: Burkholderia multivorans, AU23365. An outline of the steps:
as §1

The next test has as its system T5, B. cenocepacia AU28111.
T5 construct: AU28111
Kind of test: microbe, parasite or virus in culture. As to conditions: Burkholderia cenocepacia, AU28111. In short, it runs like this: as §1

The subject of another test is T6, B. cepacia AU16396.
T6 construct: AU16396
Kind of test: microbe, parasite or virus in culture. The note with it: Burkholderia cepacia, AU16396. An outline of the steps:
as §1

Another test concerns T7, B. multivorans AU17534.
T7 construct: AU17534
Kind of test: microbe, parasite or virus in culture. As to conditions: Burkholderia multivorans, AU17534. An outline of the steps:
as §1

In the next test the test system is T8, B. cenocepacia AU9292.
T8 construct: AU9292
Kind of test: microbe, parasite or virus in culture. As to conditions: Burkholderia cenocepacia, AU9292. In short, it runs like this:
as §1

Test [2] deals with T9, Burkholderia cepacia complex Bcc Indeterminate AU19076.
T9 construct: AU19076
The test can be described thus: microbe, parasite or virus in culture. As to conditions: Burkholderia cepacia. In short, it runs like this:
as §1

Another test deals with T10, B. multivorans AU25057.
T10 construct: AU25057
The test can be described thus: microbe, parasite or virus in culture. The note with it: Burkholderia multivorans, AU25057. In short, it runs like this: as §1

The subject of a further test is T11, B. gladioli AU26456.
T11 construct: AU26456
The test can be described thus: organism not typed. In short, it runs like this:
as §1

For a further test, the system named is T12, B. multivorans AU14786.
T12 construct: AU14786
The test can be described thus: microbe, parasite or virus in culture. The note with it: Burkholderia multivorans, AU14786. In short, it runs like this: as §1

The subject of a further test is T13, B. multivorans AU24277.
T13 construct: AU24277
The test can be described thus: microbe, parasite or virus in culture. The note with it: Burkholderia multivorans, AU24277. In short, it runs like this: as §1

The next test has as its system T14, B. gladioli AU28659.
T14 construct: AU28659
The test can be described thus: organism not typed. An outline of the steps:
as §1

Another test concerns T15, B. pyrrocinia AU1114.
T15 construct: AU1114
The test can be described thus: microbe, parasite or virus in culture. The note with it: Burkholderia pyrrocinia, AU1114. An outline of the steps:
as §1

The next test deals with T16, B. cenocepacia AU3663.
T16 construct: AU3663
The test can be described thus: microbe, parasite or virus in culture. As to conditions: Burkholderia cenocepacia, AU3663. In short, it runs like this:
as §1

The subject of the next test is T17, B. cenocepacia AU14093.
T17 construct: AU14093
Kind of test: microbe, parasite or virus in culture. As to conditions: Burkholderia cenocepacia, AU14093. An outline of the steps:
as §1

Each structure is given as a SMILES string. ≈ marks a conversion by molar mass, not a printed value. Bounds are passed on as bounds.

As for `CO/N=C(\C(=O)N[C@@H]1C(=O)N2C(C(=O)[O-])=C(C[N+]3(C)CCCC3)CS[C@H]12)c1csc(N)n1` [cefepime], the MIC against B. cepacia AU13163 was 16 mg/L (≈ 33.3 µM); in the test with B. dolosa AU12872 it was above 32 mg/L; in [1], above 32 mg/L; in the test with B. multivorans AU23365, above 32 mg/L; with B. cenocepacia AU28111, 32 mg/L (≈ 66.6 µM); against B. cepacia AU16396, 32 mg/L (≈ 66.6 µM). The MIC in the test on B. multivorans AU17534 was above 32 mg/L; in the test on B. cenocepacia AU9292 it was 32 mg/L (≈ 66.6 µM); in [2], 16 mg/L (≈ 33.3 µM); in the test on B. multivorans AU25057, 8 mg/L (≈ 16.6 µM); against B. gladioli AU26456, 4 mg/L (≈ 8.32 µM); in the test on B. multivorans AU14786 it was above 32 mg/L. The MIC in the test with B. multivorans AU24277 is above 32 mg/L; in the test on B. gladioli AU28659 it was 32 mg/L (≈ 66.6 µM); against B. pyrrocinia AU1114, 8 mg/L (≈ 16.6 µM); in the test with B. cenocepacia AU3663 it was 32 mg/L (≈ 66.6 µM); against B. cenocepacia AU14093, above 32 mg/L.
With `C[C@H]1COc2c(N3CCN(C)CC3)c(F)cc3c(=O)c(C(=O)O)cn1c23` [levofloxacin], the MIC against B. cepacia AU13163 is 2 mg/L (≈ 5.53 µM); against B. dolosa AU12872 it was above 32 mg/L; in [1] it was 16 mg/L (≈ 44.3 µM); against B. multivorans AU23365, 8 mg/L (≈ 22.1 µM); in the test with B. cenocepacia AU28111, 4 mg/L (≈ 11.1 µM); against B. cepacia AU16396 it was above 32 mg/L. The MIC was 32 mg/L (≈ 88.6 µM) in the test on B. cenocepacia AU9292; 4 mg/L (≈ 11.1 µM) in test [2]; 8 mg/L (≈ 22.1 µM) in the test with B. multivorans AU25057; 0.5 mg/L (≈ 1.38 µM) with B. gladioli AU26456; above 32 mg/L against B. multivorans AU14786; 32 mg/L (≈ 88.6 µM) against B. multivorans AU24277. In addition, the MIC was 2 mg/L (≈ 5.53 µM) with B. gladioli AU28659, above 32 mg/L against B. pyrrocinia AU1114, 16 mg/L (≈ 44.3 µM) with B. cenocepacia AU3663 and above 32 mg/L with B. cenocepacia AU14093.
As for `C[C@@H](O)[C@H]1C(=O)N2C(C(=O)O)=C(S[C@@H]3CN[C@H](C(=O)N(C)C)C3)[C@H](C)[C@H]12` [meropenem], the MIC with B. cepacia AU13163 amounted to 4 mg/L (≈ 10.4 µM); with B. dolosa AU12872 it was 32 mg/L (≈ 83.4 µM); in test [1], 8 mg/L (≈ 20.9 µM); in the test with B. multivorans AU23365, 8 mg/L (≈ 20.9 µM); in the test with B. cenocepacia AU28111, 4 mg/L (≈ 10.4 µM); against B. cepacia AU16396, 8 mg/L (≈ 20.9 µM). The MIC worked out at 16 mg/L (≈ 41.7 µM) against B. multivorans AU17534; 4 mg/L (≈ 10.4 µM) with B. cenocepacia AU9292; 4 mg/L (≈ 10.4 µM) in test [2]; 4 mg/L (≈ 10.4 µM) against B. multivorans AU25057; 1 mg/L (≈ 2.61 µM) in the test on B. gladioli AU26456; 16 mg/L (≈ 41.7 µM) with B. multivorans AU14786. Also, the MIC is 16 mg/L (≈ 41.7 µM) against B. multivorans AU24277; 2 mg/L (≈ 5.22 µM) in the test with B. gladioli AU28659; 4 mg/L (≈ 10.4 µM) in the test on B. pyrrocinia AU1114; 4 mg/L (≈ 10.4 µM) in the test on B. cenocepacia AU3663; 8 mg/L (≈ 20.9 µM) in the test on B. cenocepacia AU14093.
